Data from patent US11512090B2, “Muscarinic acetylcholine M1 receptor antagonists” (PIPELINE THERAPEUTICS, INC., priority 2018, dated 2022).
Read-outs that look alike come from different tables or passages of the source.

How the values were obtained:
Assay type in all cases: cell-based
human M1 receptor = molecular target: T1, human M1 receptor (Homo sapiens, UniProt P11229); assay: In vitro functional assay of muscarinic acetylcholine receptor activity (aequorin calcium flux, antagonist mode vs EC80 acetylcholine), M1
T1 sequence (P11229 1-460): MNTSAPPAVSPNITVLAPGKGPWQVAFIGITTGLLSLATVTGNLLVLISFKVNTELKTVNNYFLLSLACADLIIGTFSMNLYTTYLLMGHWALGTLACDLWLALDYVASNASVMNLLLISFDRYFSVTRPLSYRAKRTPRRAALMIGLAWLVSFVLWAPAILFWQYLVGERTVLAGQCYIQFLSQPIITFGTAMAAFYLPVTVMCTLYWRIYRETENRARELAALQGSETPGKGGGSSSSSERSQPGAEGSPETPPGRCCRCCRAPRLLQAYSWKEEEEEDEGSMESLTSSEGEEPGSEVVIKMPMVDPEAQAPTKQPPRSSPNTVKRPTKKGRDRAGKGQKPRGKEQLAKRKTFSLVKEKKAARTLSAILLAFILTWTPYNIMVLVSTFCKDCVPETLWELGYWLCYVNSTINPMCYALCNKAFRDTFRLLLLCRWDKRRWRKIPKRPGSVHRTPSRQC
Method in brief: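 Antagonism at M1 was measured as a concentration-dependent reduction of the EC80 acetylcholine-evoked aequorin luminescence, from which IC50 was derived. Human M1 CHO-K1 aequorin cells were first loaded with 5 uM coelenterazine h for 4 h and exposed to compound for 30 min at room temperature.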

M2 = molecular target: T2, M2 (Homo sapiens, UniProt P08172); assay: In vitro functional assay of muscarinic acetylcholine receptor activity, M2
T2 sequence (P08172 1-466): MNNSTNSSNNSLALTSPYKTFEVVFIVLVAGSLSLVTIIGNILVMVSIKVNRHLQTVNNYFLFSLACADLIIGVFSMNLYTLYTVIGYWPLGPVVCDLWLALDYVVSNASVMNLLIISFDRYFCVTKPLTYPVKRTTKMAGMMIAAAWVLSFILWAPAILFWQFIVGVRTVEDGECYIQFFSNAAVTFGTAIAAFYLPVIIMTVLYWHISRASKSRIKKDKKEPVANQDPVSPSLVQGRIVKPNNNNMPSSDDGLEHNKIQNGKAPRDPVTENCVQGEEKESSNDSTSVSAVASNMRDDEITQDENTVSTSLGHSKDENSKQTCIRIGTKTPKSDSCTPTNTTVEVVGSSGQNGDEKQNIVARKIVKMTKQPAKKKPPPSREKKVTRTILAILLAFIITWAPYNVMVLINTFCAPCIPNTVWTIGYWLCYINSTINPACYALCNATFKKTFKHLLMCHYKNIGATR

M3 = M3 (Homo sapiens, UniProt P20309); assay: In vitro functional assay of muscarinic acetylcholine receptor activity, M3
M3, sequence (P20309 whole entry): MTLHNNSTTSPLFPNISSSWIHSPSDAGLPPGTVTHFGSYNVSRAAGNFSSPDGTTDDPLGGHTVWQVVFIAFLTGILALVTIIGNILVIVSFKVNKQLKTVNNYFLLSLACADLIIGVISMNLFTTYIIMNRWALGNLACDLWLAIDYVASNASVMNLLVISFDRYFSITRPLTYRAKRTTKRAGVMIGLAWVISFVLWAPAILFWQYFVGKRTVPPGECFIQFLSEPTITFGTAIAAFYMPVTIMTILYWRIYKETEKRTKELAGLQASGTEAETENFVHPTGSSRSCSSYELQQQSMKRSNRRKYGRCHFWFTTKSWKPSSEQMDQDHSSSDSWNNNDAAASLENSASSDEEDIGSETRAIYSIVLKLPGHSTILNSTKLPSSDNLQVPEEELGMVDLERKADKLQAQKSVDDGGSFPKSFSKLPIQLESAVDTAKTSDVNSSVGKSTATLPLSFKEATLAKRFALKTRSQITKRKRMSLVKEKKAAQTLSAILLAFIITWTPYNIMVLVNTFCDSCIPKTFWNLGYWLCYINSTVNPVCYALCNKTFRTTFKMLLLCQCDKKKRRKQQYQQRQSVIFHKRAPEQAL

[1] = CHO-K1 cells stably expressing human M1 receptor with Aequorin, decrease in EC80 acetylcholine response, read-out: M1 IC50
[2] = antagonist IC50 at M2, read-out: M2 IC50
[3] = antagonist IC50 at M3, read-out: M3 IC50

Structure (SMILES) | IC50 (human M1 receptor; [1]) | IC50 (M2; [2]) | IC50 (M3; [3]) | IC50 (human M1 receptor) | IC50 (M2) | IC50 (M3)
Cc1cc(C#N)ncc1N1CCN(C(=O)CCS(=O)(=O)c2cccc3ncsc23)[C@@H](C)C1 [Example 25, 5-[(3S)-4-[3-(1,3-benzothiazole-7-sulfonyl)propanoyl]-3-methylpiperazin-1-yl]-4-methylpyridine-2-carbonitrile] | < 100 nM | 100 to 1000 nM | > 10 µM |  |  | 
Cc1nc2cccc(S(=O)(=O)CCCC(=O)N3CCN(c4ncc(F)cc4C)C[C@@H]3C)c2o1 [Example 98, (S)-1-(4-(5-fluoro-3-methylpyridin-2-yl)-2-methylpiperazin-1-yl)-4-((2-methylbenzo[d]oxazol-7-yl)sulfonyl)butan-1-one] | 1000 to 10000 nM | 1000 to 10000 nM | > 10 µM |  |  | 
N#Cc1ccc(N2C3CCC2CN(C(=O)CCCCc2cccc4ncsc24)C3)nc1 [Example 44, 6-{3-[5-(1,3-benzothiazol-7-yl)pentanoyl]-3,8-diazabicyclo[3.2.1]octan-8-yl}pyridine-3-carbonitrile] |  |  | 1 to 10 µM | < 100 nM | 100 to 1000 nM | 
O=C(CCCc1cccc2ncccc12)N1CC2CC1CN2c1ccncc1 (stereo not drawn) [Example 57, 1-(5-(pyridin-4-yl)-2,5-diazabicyclo[2.2.1]heptan-2-yl)-4-(quinolin-5-yl)butan-1-one] | 100 to 1000 nM | 1000 to 10000 nM | 1 to 10 µM |  |  | 
CC1CN(c2ccc(C#N)cn2)[C@H](C)CN1C(=O)CCS(=O)(=O)c1cccc2ncsc12 (stereo partly drawn) [Example 126, 6-[(2R)-4-[3-(1,3-benzothiazole-7-sulfonyl)propanoyl]-2,5-dimethylpiperazin-1-yl]pyridine-3-carbonitrile] | 100 to 1000 nM | > 10000 nM | > 10 µM |  |  | 
O=C(CCNCc1cccc2nccn12)N1CC2CCC(C1)N2c1ccncc1F [Example 14, 1-[8-(3-fluoropyridin-4-yl)-3,8-diazabicyclo[3.2.1]octan-3-yl]-3-[([imidazo[1,2-a]pyridin-5-yl]methyl)amino]propan-1-one] |  | > 10000 nM | > 10 µM | 100 to 1000 nM |  | 
N#Cc1ccc(N2C3CCC2CN(C(=O)CCNCc2c(F)ccc4nccn24)C3)nc1 [Example 34, 6-(3-{3-[({6-fluoroimidazo[1,2-a]pyridin-5-yl}methyl)amino]propanoyl}-3,8-diazabicyclo[3.2.1]octan-8-yl)pyridine-3-carbonitrile] |  | 1000 to 10000 nM | 1 to 10 µM | < 100 nM |  | 
O=C(CCOCc1cccc2ncsc12)N1C[C@H]2CC[C@@H](C1)N2c1ccncc1F [Example 85, 3-(benzo[d]thiazol-7-ylmethoxy)-1-((1R,5S)-8-(3-fluoropyridin-4-yl)-3,8-diazabicyclo[3.2.1]octan-3-yl)propan-1-one] |  | 1000 to 10000 nM | 1 to 10 µM | < 100 nM |  | 
N#Cc1ccc(N2C3CCC2CN(C(=O)CCNCc2cccc4nsnc24)C3)nc1 [Example 150, 6-[3-(3-{[(2,1,3-benzothiadiazol-4-yl)methyl]amino}propanoyl)-3,8-diazabicyclo[3.2.1]octan-8-yl]pyridine-3-carbonitrile] |  | 1000 to 10000 nM | > 10 µM | 100 to 1000 nM |  | 
CN(CCC(=O)N1CC2CCC(C1)N2c1ccc(C#N)cn1)Cc1cccc2ncsc12 [Example 169, 6-[3-(3-{[(1,3-benzothiazol-7-yl)methyl](methyl)amino}propanoyl)-3,8-diazabicyclo[3.2.1]octan-8-yl]pyridine-3-carbonitrile] |  |  | 1 to 10 µM | 100 to 1000 nM | 100 to 1000 nM | 
N#Cc1ccc(N2C3CCC2CN(C(=O)COCCc2cccc4nccnc24)C3)nc1 [Example 43, 6-(3-{2-[2-(quinoxalin-5-yl)ethoxy]acetyl}-3,8-diazabicyclo[3.2.1]octan-8-yl)pyridine-3-carbonitrile] |  |  |  | 100 to 1000 nM | 1000 to 10000 nM | > 10 µM
N#Cc1ccc(N2CCN(C(=O)CCCc3cccc4ncoc34)CC2)nc1 [Example 129, 6-{4-[4-(1,3-benzoxazol-7-yl)butanoyl)piperazin-1-yl}pyridine-3-carbonitrile] | 100 to 1000 nM | 1000 to 10000 nM | > 10 µM |  |  | 
N#Cc1ccc(N2C3CCC2CN(C(=O)CCOCc2cccc4nccnc24)C3)nc1 [Example 37, 6-(3-{3-[(quinoxalin-5-yl)methoxy]propanoyl}-3,8-diazabicyclo[3.2.1]octan-8-yl)pyridine-3-carbonitrile] |  | 1000 to 10000 nM | > 10 µM | < 100 nM |  | 
O=C(COCCc1cccn2ncnc12)N1CC2CCC(C1)N2c1ccc(Cl)cn1 [Example 179, 1-[8-(5-chloropyridin-2-yl)-3,8-diazabicyclo[3.2.1]octan-3-yl]-2-(2-{[1,2,4]triazolo[1,5-a]pyridin-8-yl}ethoxy)ethan-1-one] |  | > 10000 nM | > 10 µM | < 100 nM |  | 
O=C(CCCc1cccc2ncccc12)N1CCN(c2ccncc2F)CC1 [Example 67, 1-(4-(3-fluoropyridin-4-yl)piperazin-1-yl)-4-(quinolin-5-yl)butan-1-one] | 100 to 1000 nM | > 10000 nM | 1 to 10 µM |  |  | 
O=C(CCS(=O)(=O)c1cccc2nccn12)N1CC2CCC(C1)N2c1ccc(Cl)cn1 [Example 143, 1-[8-(5-chloropyridin-2-yl)-3,8-diazabicyclo[3.2.1]octan-3-yl]-3-{imidazo[1,2-a]pyridine-5-sulfonyl}propan-1-one] |  | 1000 to 10000 nM | 1 to 10 µM | < 100 nM |  | 
N#Cc1ccc(N2CCN(C(=O)CCS(=O)(=O)c3cccc4ncsc34)CC2)nc1 [Example 111, 6-(4-(3-(benzo[d]thiazol-7-ylsulfonyl)propanoyl)piperazin-1-yl)nicotinonitrile] | < 100 nM | 1000 to 10000 nM | 1 to 10 µM |  |  | 
O=C(CCS(=O)(=O)c1cccc2ncsc12)N1CC2CCC(C1)N2c1ccc(C(F)(F)F)cn1 [Example 147, 3-(1,3-benzothiazole-7-sulfonyl)-1-{8-[5-(trifluoromethyl)pyridin-2-yl]-3,8-diazabicyclo[3.2.1]octan-3-yl}propan-1-one] |  | < 100 nM | < 0.1 µM | < 100 nM |  | 
Cc1cc(F)cnc1N1CCN(C(=O)COCc2cccc3ncccc23)[C@@H](C)C1 [Example 87, (S)-1-(4-(5-fluoro-3-methylpyridin-2-yl)-2-methylpiperazin-1-yl)-2-(quinolin-5-ylmethoxy)ethan-1-one] | 1000 to 10000 nM | 1000 to 10000 nM | 1 to 10 µM |  |  | 
O=C(CCS(=O)(=O)c1cccc2ncsc12)N1CCN(c2ccc(C(F)(F)F)cn2)CC1 [Example 102, 3-(benzo[d]thiazol-7-ylsulfonyl)-1-(4-(5-(trifluoromethyl)pyridin-2-yl)piperazin-1-yl)propan-1-one] | < 100 nM | 1000 to 10000 nM | 1 to 10 µM |  |  | 
Cc1ccc2ncnn2c1CNCCC(=O)N1CC2CCC(C1)N2c1ccc(C#N)cn1 [Example 173, 6-(3-{3-[({6-methyl-[1,2,4]triazolo[1,5-a]pyridin-5-yl}methyl)amino]propanoyl}-3,8-diazabicyclo[3.2.1]octan-8-yl)pyridine-3-carbonitrile] |  | > 10000 nM | > 10 µM | 100 to 1000 nM |  | 
N#Cc1cc(N2CCN(C(=O)CCCc3cccc4ncccc34)CC2)ccn1 [Example 70, 4-(4-(4-(quinolin-5-yl)butanoyl)piperazin-1-yl)picolinonitrile] | < 100 nM | 100 to 1000 nM | 1 to 10 µM |  |  | 
Cc1nc2cccc(CNCC(=O)N3C[C@H]4CC[C@@H](C3)N4c3ccncc3F)c2o1 [Example 72, 1-((1R,5S)-8-(3-fluoropyridin-4-yl)-3,8-diazabicyclo[3.2.1]octan-3-yl)-2-(((2-methylbenzo[d]oxazol-7-yl)methyl)amino)ethan-1-one] |  | 1000 to 10000 nM | > 10 µM | 100 to 1000 nM |  | 
Cc1cc(F)cnc1N1CCN(C(=O)CCCc2cccc3ncc(CO)cc23)[C@@H](C)C1 [Example 94, (S)-1-(4-(5-fluoro-3-methylpyridin-2-yl)-2-methylpiperazin-1-yl)-4-(3-(hydroxymethyl)quinolin-5-yl)butan-1-one] | 100 to 1000 nM | 100 to 1000 nM | 1 to 10 µM |  |  | 
N#Cc1ccc(N2CC3CCC2CN3C(=O)CCNCc2cccc3ncsc23)nc1 (stereo not drawn) [Example 162, 6-[5-(3-{[(1,3-benzothiazol-7-yl)methyl]amino}propanoyl)-2,5-diazabicyclo[2.2.2]octan-2-yl]pyridine-3-carbonitrile] | 100 to 1000 nM | 1000 to 10000 nM | 1 to 10 µM |  |  | 
